{
  "source": "patent US4218443A",
  "about": "“Polyether ionophores as antiobesity and hypotriglyceridemic agents” (Hoffmann-La Roche Inc., priority 1979, dated 1980)",
  "key": {"pancreatic lipase": {"target": "T1, pancreatic lipase (Rattus norvegicus, UniProt P27657)", "T1 construct": "stimulated to release pancreatic proteins by addition of 10^-5 M carbachol; from tissue; host or cells: pancreatic lobules of fasted Charles River female rats; released pancreatic juice, centrifuged", "T1 sequence (P27657 17-465)": "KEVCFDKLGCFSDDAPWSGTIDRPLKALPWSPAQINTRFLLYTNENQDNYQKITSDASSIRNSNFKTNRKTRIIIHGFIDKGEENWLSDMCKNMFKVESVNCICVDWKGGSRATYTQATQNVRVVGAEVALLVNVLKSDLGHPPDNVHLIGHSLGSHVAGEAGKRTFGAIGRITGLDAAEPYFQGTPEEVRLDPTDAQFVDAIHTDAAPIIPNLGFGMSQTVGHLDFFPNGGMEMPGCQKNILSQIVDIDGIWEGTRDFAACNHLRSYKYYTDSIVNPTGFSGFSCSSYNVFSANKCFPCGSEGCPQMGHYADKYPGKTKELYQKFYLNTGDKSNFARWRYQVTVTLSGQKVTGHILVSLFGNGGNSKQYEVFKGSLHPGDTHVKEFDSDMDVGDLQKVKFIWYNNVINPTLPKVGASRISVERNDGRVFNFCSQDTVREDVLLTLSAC", "experiment": "In vitro pancreatic lipase screen ([14C]-triolein assay)", "format": "biochemical", "conditions": "read-out: Pancreatic Lipase Activity I50", "method": "The method for assaying pacreatic lipase in vitro using [^14 C]-triolein was based on the method of Garfinkel and Schotz for lipoprotein lipase, [A. S. Garfinkel and M. C. Schotz (1972). […] Glycerol tri[1-^14 C]oleate (32 mM) was emulsified in 0.2 M Tris-HCl pH 8 containing 0.15 M NaCl, bovine serum albumin (15 mg/ml) and sodium taurocholate (1.4 mM) by sonication for three, one min intervals at 80 watts. Final assay volume was 1.0 ml. The reaction was initiated by the addition of enzyme and was allowed to proceed for 10 min. The reaction was linear for up to 20 min. The liberated free fatty acids were extracted into 0.1 M KOH and quantitated in a liquid scintillation counter using 2,5-bis-2-(5-tertbutylbenzoxazolyl)-tniophene (BBOT) scintillation fluid (Yorktown Research, South Hackensack, N.J.).\nIonophores were added to the above assay as solutions in either 90% ethanol or water, pH 8; 90% ethanol had no effect on the enzyme activity assayed by either method."}, "human pancreatic lipase": {"target": "T2, human pancreatic lipase (Homo sapiens, UniProt P16233)", "T2 construct": "Human pancreatic juice was obtained from a patient with acute pancreatitis; from tissue; host or cells: human pancreatic juice from the cannulated duct of a patient with acute pancreatitis; gift of Dr. George Nardi, Massachusetts General Hospital", "T2 sequence (P16233 17-465)": "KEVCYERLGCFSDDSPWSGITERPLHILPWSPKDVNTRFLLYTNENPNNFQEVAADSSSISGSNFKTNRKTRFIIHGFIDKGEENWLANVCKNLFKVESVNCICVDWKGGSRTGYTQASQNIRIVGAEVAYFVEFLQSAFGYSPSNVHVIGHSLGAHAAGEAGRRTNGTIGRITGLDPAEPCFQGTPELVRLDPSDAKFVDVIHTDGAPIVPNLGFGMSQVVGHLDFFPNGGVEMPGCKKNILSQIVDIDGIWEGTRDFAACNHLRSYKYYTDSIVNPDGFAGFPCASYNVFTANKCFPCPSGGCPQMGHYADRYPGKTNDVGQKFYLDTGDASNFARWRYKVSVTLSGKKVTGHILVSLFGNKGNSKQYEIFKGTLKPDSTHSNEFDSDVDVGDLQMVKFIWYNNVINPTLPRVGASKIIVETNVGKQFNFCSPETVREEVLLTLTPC", "experiment": "In vitro titrimetric (Radiometer pH-stat) pancreatic lipase assay, Dixon plots", "format": "biochemical", "conditions": "Dixon plots"}, "[1]": {"system": "female Charles River rats", "experiment": "Chronic 31 day dietary admix experiment", "format": "in vivo, Charles River rat", "conditions": "31 days; for Body Weight Gain / Body Weight final / Fat Absorption / Food Consumption / Food Efficiency / Serum Cholesterol / Serum Free Fatty Acids / Serum Glucose / Serum IRI (immunoreactive insulin) / Serum Triglycerides: sodium salt, mean ± SE", "source_text": "Faster enzymatic procedure for serum triglycerides, Clinical Chemistry, 21: 1983-1985], cholesterol, [C. C. Allain, L. Poon, S. G. Chan, W. Richmond and P. Fu (1974). Enzymatic determination of total serum cholesterol, Clinical Chemistry, 20: 470-475] and glucose, [R. Konig, H. Dauwalder and R. Richterich (1971). Vergleichende Bestimmungen der Uringlucosekonzentration mit der Polarimetrie und einer enzymatischen Methode (Hexokinase/Glucose-6-Phosphat-Dehydrogenase), Schweiz. Med. Wschr., 101: 860-866], by enzymatic procedures and free fatty acids, [C. Dalton and C. Kowalski (1967). Automated colorimetric determination of free fatty acids in biologic fluids, Clinical Chemistry, 13: 744-751], by a Colorimetric procedure. Serum immunoreactive insulins were determined by radioimmunoassay, [G. F. Bryce, P. R. Johnson, A. C. Sullivan, J. S. Stern (1977). Insulin and glucagon: Plasma levels and pancreatic release in the gentically obese Zucker rat, Hormone and Metabolic Research, 9: 366-370].\nFIG. 2 sets forth body weight gain values of rats matched for initial body weight and pair fed 10% corn oil diet without dinitrodescarboxylasalocid and three groups of pair fed rats receiving 60, 120 and 240 mg/kg of dinitrodescarboxylasalocid as dietary admixes for 31 days respectively. […] Tables 12 and 13 describe the effects of dinitrodescarboxylasalocid (150 mg/kg b.i.d. by oral intubation) in genetically obese and lean Zucker rats for 21 days."}, "[2]": {"target": "rat epididyml lipoprotein lipase (Rattus norvegicus, UniProt Q06000)", "sequence (Q06000 28-474)": "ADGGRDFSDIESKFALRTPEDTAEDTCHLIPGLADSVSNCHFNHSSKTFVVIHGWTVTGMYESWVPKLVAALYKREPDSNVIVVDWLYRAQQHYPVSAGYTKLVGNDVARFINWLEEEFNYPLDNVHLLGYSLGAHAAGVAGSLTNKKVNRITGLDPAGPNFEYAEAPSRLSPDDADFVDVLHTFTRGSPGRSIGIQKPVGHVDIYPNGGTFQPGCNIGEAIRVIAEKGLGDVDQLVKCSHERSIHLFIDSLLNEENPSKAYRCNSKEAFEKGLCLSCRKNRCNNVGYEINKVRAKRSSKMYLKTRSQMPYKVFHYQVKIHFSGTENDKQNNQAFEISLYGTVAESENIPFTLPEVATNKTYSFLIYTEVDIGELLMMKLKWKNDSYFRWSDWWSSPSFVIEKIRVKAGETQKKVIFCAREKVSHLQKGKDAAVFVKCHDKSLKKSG", "conditions": "read-out: I50 lipoprotein lipase; rat epididyml lipoprotein lipase in vitro", "procedure": "Acetone powders of Zucker rat epididyml adipose tissue were the source of lipoprotein lipase and were prepared by the method of Garfinkel and Schotz, [A. S. Garfinkel and M. C. […] The adipose tissue was removed quickly and immediately homogenized in acetone (15 ml per gram of adipose tissue) in a Waring Blender at high speed for one minute, then filtered quickly through a coarse fritted glass funnel. The extract was washed twice with acetone (3 ml per gram of adipose tissue), then washed two more times with anhydrous ethyl ether (3 ml per gram adipose tissue). The powder was dried under vacuum for one hour, weighed and stored desiccated at -70° C. Approximately 0.013 g acetone powder was obtained per gram of epididyml adipose tissue. The lipoprotein lipase was extracted from the acetone powder into 0.05 M NH4 OH-NH4 Cl buffer, pH 8.6. The extracts were prepared by homogenizing the acetone powder in buffer in a TenBroeck glass tissue grinder in ice. The homogenate was centrifuged at 2,000×g for 20 min to remove insoluble material.\nIonophores were added to the above assays as solutions in either water or DMSO."}, "[3]": {"system": "intestinal absorption of triglycerides (corn oil)", "experiment": "In vivo absorption of triglycerides (corn oil absorption)", "conditions": "Experiment 2, sodium"}},
  "data": [
    {"molecule": "CC[C@@H](C(=O)[C@@H](C)[C@@H](O)[C@H](C)CCc1c([N+](=O)[O-])cc(C)c(O)c1[N+](=O)[O-])[C@H]1O[C@](CC)([C@H]2CC[C@](O)(CC)[C@H](C)O2)C[C@@H]1C", "note": "[Dinitrodescarboxylasalocid]", "values": [
      {"measurement": "IC50", "setting": "pancreatic lipase", "value": 400, "unit": "µM"},
      {"measurement": "type of inhibition from Dixon plots", "setting": "human pancreatic lipase", "value": "suggested competitive inhibition"},
      {"measurement": "Ki", "setting": "human pancreatic lipase; in vitro Radiometer assay, read-out: inhibition constant (Ki)", "value": 20, "unit": "µM"},
      {"measurement": "Body Weight Gain", "setting": "[1]; 60 mg/kg dietary admix", "value": "64 ± 6", "unit": "g"},
      {"measurement": "Body Weight final", "setting": "[1]; 60 mg/kg dietary admix", "value": "255 ± 8", "unit": "g"},
      {"measurement": "Fat Absorption", "setting": "[1]; 60 mg/kg dietary admix", "value": "95.6 ± 0.6", "unit": "%"},
      {"measurement": "Food Consumption", "setting": "[1]; 60 mg/kg dietary admix", "value": "17.4 ± 0.6", "unit": "g/day"},
      {"measurement": "Food Efficiency", "setting": "[1]; 60 mg/kg dietary admix", "value": "0.115 ± 0.010", "unit": "g gained/g consumed"},
      {"measurement": "Serum Cholesterol", "setting": "[1]; 60 mg/kg", "value": "106 ± 6", "unit": "mg/100 ml"},
      {"measurement": "Serum Free Fatty Acids", "setting": "[1]; 60 mg/kg", "value": "469 ± 46", "unit": "μeq/l"},
      {"measurement": "Serum Glucose", "setting": "[1]; 60 mg/kg", "value": "173 ± 5", "unit": "mg/100 ml"},
      {"measurement": "Serum IRI (immunoreactive insulin)", "setting": "[1]; 60 mg/kg", "value": "1.8 ± 0.2", "unit": "ng/mL"},
      {"measurement": "Serum Triglycerides", "setting": "[1]; 60 mg/kg", "value": "73 ± 3", "unit": "mg/100 ml"},
      {"measurement": "Body Weight Gain", "setting": "[1]; 120 mg/kg dietary admix", "value": "66 ± 8", "unit": "g"},
      {"measurement": "Body Weight final", "setting": "[1]; 120 mg/kg dietary admix", "value": "256 ± 10", "unit": "g"},
      {"measurement": "Fat Absorption", "setting": "[1]; 120 mg/kg dietary admix", "value": "95.8 ± 0.6", "unit": "%"},
      {"measurement": "Food Consumption", "setting": "[1]; 120 mg/kg dietary admix", "value": "19.0 ± 0.5", "unit": "g/day"},
      {"measurement": "Food Efficiency", "setting": "[1]; 120 mg/kg dietary admix", "value": "0.109 ± 0.014", "unit": "g gained/g consumed"},
      {"measurement": "Serum Cholesterol", "setting": "[1]; 120 mg/kg", "value": "88 ± 6", "unit": "mg/100 ml"},
      {"measurement": "Serum Free Fatty Acids", "setting": "[1]; 120 mg/kg", "value": "425 ± 45", "unit": "μeq/l"},
      {"measurement": "Serum Glucose", "setting": "[1]; 120 mg/kg", "value": "164 ± 5", "unit": "mg/100 ml"},
      {"measurement": "Serum IRI (immunoreactive insulin)", "setting": "[1]; 120 mg/kg", "value": "2.0 ± 0.2", "unit": "ng/mL"},
      {"measurement": "Serum Triglycerides", "setting": "[1]; 120 mg/kg", "value": "64 ± 5", "unit": "mg/100 ml"},
      {"measurement": "Body Weight Gain", "setting": "[1]; 240 mg/kg dietary admix", "value": "51 ± 3", "unit": "g"},
      {"measurement": "Body Weight final", "setting": "[1]; 240 mg/kg dietary admix", "value": "246 ± 4", "unit": "g"},
      {"measurement": "Fat Absorption", "setting": "[1]; 240 mg/kg dietary admix", "value": "88.1 ± 1.7", "unit": "%"},
      {"measurement": "Food Consumption", "setting": "[1]; 240 mg/kg dietary admix", "value": "17.6 ± 0.5", "unit": "g/day"},
      {"measurement": "Food Efficiency", "setting": "[1]; 240 mg/kg dietary admix", "value": "0.083 ± 0.011", "unit": "g gained/g consumed"},
      {"measurement": "Serum Cholesterol", "setting": "[1]; 240 mg/kg", "value": "155 ± 9", "unit": "mg/100 ml"},
      {"measurement": "Serum Free Fatty Acids", "setting": "[1]; 240 mg/kg", "value": "423 ± 61", "unit": "μeq/l"},
      {"measurement": "Serum Glucose", "setting": "[1]; 240 mg/kg", "value": "155 ± 8", "unit": "mg/100 ml"},
      {"measurement": "Serum IRI (immunoreactive insulin)", "setting": "[1]; 240 mg/kg", "value": "1.7 ± 0.2", "unit": "ng/mL"},
      {"measurement": "Serum Triglycerides", "setting": "[1]; 240 mg/kg", "value": "51 ± 4", "unit": "mg/100 ml"},
      {"measurement": "Body weight gain compared to controls and the respective pair-fed groups (FIG. 2)", "setting": "[1]; 60, 120 and 240 mg/kg dietary admix", "value": "reduced significantly only at the 240 mg/kg dose"},
      {"measurement": "IC50", "setting": "[2]", "value": 270, "unit": "µM"},
      {"measurement": "Area under curve (corn oil absorption)", "setting": "[3]; 56 mg/kg p.o.", "value": 1213},
      {"measurement": "Area under curve, % of control", "setting": "[3]; 56 mg/kg p.o.", "value": "86 % of control"},
      {"measurement": "Area under curve (corn oil absorption)", "setting": "[3]; 120 mg/kg p.o.", "value": 1072},
      {"measurement": "Area under curve, % of control", "setting": "[3]; 120 mg/kg p.o.", "value": "76 % of control"},
      {"measurement": "Area under curve (corn oil absorption)", "setting": "[3]; 240 mg/kg p.o.", "value": 564},
      {"measurement": "Area under curve, % of control", "setting": "[3]; 240 mg/kg p.o.", "value": "40 % of control"}
    ]}
  ]
}
